Experimental data from patent US10899774B2, “IRAK4 modulators” (Genentech, Inc., priority 2017, dated 2021).
Where a name gives a salt, the structure may show the parent alone.

Target: human IRAK4 (Homo sapiens (Human), UniProt Q9NWZ3)
Assay: IRAK4 kinase inhibition, Transcreener fluorescence polarization (ADP detection)
Format: biochemical
Conditions: recombinant full-length His6-IRAK4; 1.25 nM IRAK4; 125 μM ATP; 90 min; ATP Km 642 μM
Method: Compounds were assayed for inhibition of human IRAK4 and IRAK1 catalytic activity using recombinant enzyme produced from insect cells. Full-length IRAK4 protein, carrying an N-terminal His6-Tag, was obtained from Life Technologies (Carlsbad, Calif., USA). The IRAK1 construct was produced internally and was comprised of IRAK1 residues Arg194 to Ser712, preceded by an NH2-terminal His6 tag and the coding sequence for glutathione-S-transferase.
Kinase activities were assayed using the Transcreener-Fluorecescence polarization platform (BelBrook Labs, Madison, Wis., USA) that measures amounts of the reaction product, ADP.
384 well assay plates spotted with compound received 4 μl of a 2× substrate (ATP+peptide) mix in reaction buffer, followed by 4 μl of 2× enzyme diluted in reaction buffer.

Sequence of human IRAK4 (Q9NWZ3 whole entry): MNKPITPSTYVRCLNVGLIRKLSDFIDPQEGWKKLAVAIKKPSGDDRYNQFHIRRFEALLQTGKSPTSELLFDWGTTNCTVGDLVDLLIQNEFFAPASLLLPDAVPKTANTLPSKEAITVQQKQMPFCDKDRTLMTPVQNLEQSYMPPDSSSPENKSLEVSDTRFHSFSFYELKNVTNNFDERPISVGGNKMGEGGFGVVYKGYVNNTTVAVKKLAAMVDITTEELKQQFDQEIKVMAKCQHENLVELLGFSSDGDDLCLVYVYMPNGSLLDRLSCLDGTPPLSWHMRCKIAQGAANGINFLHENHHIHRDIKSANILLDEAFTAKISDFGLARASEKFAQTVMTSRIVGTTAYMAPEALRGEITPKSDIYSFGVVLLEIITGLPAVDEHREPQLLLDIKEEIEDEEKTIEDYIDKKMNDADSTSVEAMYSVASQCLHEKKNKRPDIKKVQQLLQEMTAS

Row | SMILES | Ki [nM]
1 | CC1(C)Cc2cc(NC(=O)c3csc(N4CCOCC4)n3)c(N3CCOCC3)cc2O1 [Example 36, N-(2,2-Dimethyl-6-morpholino-2,3-dihydrobenzofuran-5-yl)-2-morpholinothiazole-4-carboxamide] | 3.8
2 | CC1(C)Cc2cc(NC(=O)c3coc(N4CCOCC4)n3)c(N3CCOCC3)cc2O1 [Example 37, N-(2,2-Dimethyl-6-morpholino-2,3-dihydrobenzofuran-5-yl)-2-morpholinooxazole-4-carboxamide] | 5.2
3 | CC1(C)Cc2cc(NC(=O)c3cccc4[nH]c(CO)nc34)c(N3CCOCC3)cc2O1 [Example 40, N-(2,2-Dimethyl-6-morpholino-2,3-dihydrobenzofuran-5-yl)-2-(hydroxymethyl)-1H-benzo[d]imidazole-4-carboxamide] | 28
4 | CC(=O)Nc1cc(-n2ccc(C(=O)Nc3cc4c(cc3N3CCOCC3)OC(C)(C)C4)n2)ccn1 [Example 49, 1-(2-Acetamido-4-pyridyl)-N-(2,2-dimethyl-6-morpholino-3H-benzofuran-5-yl)pyrazole-3-carboxamide] | 7.6
5 | Cn1nnc2c(C(=O)Nc3cc4c(cc3N3CCOCC3)OC(C)(CO)C4)cncc21 (stereo not shown) [Example 52, N-(2-(Hydroxymethyl)-2-methyl-6-morpholino-2,3-dihydrobenzofuran-5-yl)-3-methyl-3H-[1,2,3]triazolo[4,5-c]pyridine-7-carboxamide] | 100
6 | CC1(C)COc2cc(C(=O)Nc3cc4c(cc3N3CCOCC3)OC(C)(CO)C4)nn2C1 (stereo not shown) [Example 54, N-[2-(Hydroxymethyl)-2-methyl-6-morpholino-3H-benzofuran-5-yl]-6,6-dimethyl-5,7-dihydropyrazolo[5,1-b][1,3]oxazine-2-carboxamide] | 810
7 | CC1COc2c(C(=O)Nc3cc4c(cc3N3CCOCC3)OC(C)(CO)C4)cnn2C1 (stereo not shown) [Example 55, N-[2-(Hydroxymethyl)-2-methyl-6-morpholino-3H-benzofuran-5-yl]-6-methyl-6,7-dihydro-5H-pyrazolo[5,1-b][1,3]oxazine-3-carboxamide] | 390
8 | COc1ccc(-n2ccc(C(=O)Nc3cc4c(cc3N3CCOCC3)OC(C)(C)C4)n2)cn1 [Example 58, N-(2,2-Dimethyl-6-morpholino-3H-benzofuran-5-yl)-1-(6-methoxy-3-pyridyl)pyrazole-3-carboxamide] | 29
9 | CC1(C)Cc2cc(NC(=O)c3ccn(-c4ccnc(CO)c4)n3)c(N3CCOCC3)cc2O1 [Example 59, N-(2,2-Dimethyl-6-morpholino-3H-benzofuran-5-yl)-1-[2-(hydroxymethyl)-4-pyridyl]pyrazole-3-carboxamide] | 1.6
10 | COc1cc(-n2ccc(C(=O)Nc3cc4c(cc3N3CCOCC3)OC(C)(C)C4)n2)ccn1 [Example 60, N-(2,2-Dimethyl-6-morpholino-3H-benzofuran-5-yl)-1-(2-methoxy-4-pyridyl)pyrazole-3-carboxamide] | 8.2
11 | CC1(C)Cc2cc(NC(=O)c3ccn(-c4ccnc(NCC(F)(F)F)c4)n3)c(N3CCOCC3)cc2O1 [Example 62, N-(2,2-Dimethyl-6-morpholino-3H-benzofuran-5-yl)-1-[2-(2,2,2-trifluoroethylamino)-4-pyridyl]pyrazole-3-carboxamide] | 17
12 | CC1(C)Cc2cc(NC(=O)c3ccn(-c4ccnc(C#N)c4)n3)c(N3CCOCC3)cc2O1 [Example 63, 1-(2-Cyano-4-pyridyl)-N-(2,2-dimethyl-6-morpholino-3H-benzofuran-5-yl)pyrazole-3-carboxamide] | 16
13 | CC1(C)Cc2cc(NC(=O)c3cncc4c3nnn4CCO)c(N3CCOCC3)cc2O1 [Example 64, N-(2,2-Dimethyl-6-morpholino-3H-benzofuran-5-yl)-3-(2-hydroxyethyl)triazolo[4,5-c]pyridine-7-carboxamide] | 350
14 | CC1(C)Cc2cc(NC(=O)c3ccn(-c4ccc(=O)[nH]c4)n3)c(N3CCOCC3)cc2O1 [Example 66, N-(2,2-Dimethyl-6-morpholino-3H-benzofuran-5-yl)-1-(6-oxo-1H-pyridin-3-yl)pyrazole-3-carboxamide] | 14
15 | CC1(CO)Cc2cc(NC(=O)c3csc4cc(C#N)cnc34)c(N3CCOCC3)cc2O1 (stereo not shown) [Example 69, 6-Cyano-N-(2-(hydroxymethyl)-2-methyl-6-morpholino-2,3-dihydrobenzofuran-5-yl)thieno[3,2-b]pyridine-3-carboxamide Formate] | 28
16 | CC1(C)Cc2cc(NC(=O)c3ccn(-c4cc[nH]c(=O)c4)n3)c(N3CCOCC3)cc2O1 [Example 70, N-(2,2-Dimethyl-6-morpholino-3H-benzofuran-5-yl)-1-(2-oxo-1H-pyridin-4-yl)pyrazole-3-carboxamide] | 2.7
17 | CC1(C)Cc2cc(NC(=O)c3cnn4ccc(=O)[nH]c34)c(N3CCOCC3)cc2O1 [Example 71, N-(2,2-dimethyl-6-morpholino-3H-benzofuran-5-yl)-5-oxo-4H-pyrazolo[1,5-a]pyrimidine-3-carboxamide] | 930

The remaining lines, values ahead:

Row | Ki [nM] | SMILES
18 | 7.4 | CC1(C)Cc2cc(NC(=O)c3coc(C4CC4)n3)c(N3CCOCC3)cc2O1 [Example 38, 2-Cyclopropyl-N-(2,2-dimethyl-6-morpholino-2,3-dihydrobenzofuran-5-yl)oxazole-4-carboxamide]
19 | 43 | CC1(C)Cc2cc(NC(=O)c3coc(C(C)(C)C)n3)c(N3CCOCC3)cc2O1 [Example 41, 2-(tert-Butyl)-N-(2,2-dimethyl-6-morpholino-2,3-dihydrobenzofuran-5-yl)oxazole-4-carboxamide]
20 | 98 | CC1(C)Cc2cc(NC(=O)c3cscn3)c(N3CCOCC3)cc2O1 [Example 42, N-(2,2-Dimethyl-6-morpholino-2,3-dihydrobenzofuran-5-yl)thiazole-4-carboxamide]
21 | 110 | CCc1cnc(C(=O)Nc2cc3c(cc2N2CCOCC2)OC(C)(C)C3)[nH]1 [Example 43, N-(2,2-Dimethyl-6-morpholino-2,3-dihydrobenzofuran-5-yl)-5-ethyl-1H-imidazole-2-carboxamide]
22 | 290 | Cc1cnc(C(=O)Nc2cc3c(cc2N2CCOCC2)OC(C)(C)C3)[nH]1 [Example 44, N-(2,2-Dimethyl-6-morpholino-2,3-dihydrobenzofuran-5-yl)-5-methyl-1H-imidazole-2-carboxamide]
23 | 490 | CC1(C)Cc2cc(NC(=O)c3n[nH]c4cccnc34)c(N3CCOCC3)cc2O1 [Example 45, N-(2,2-Dimethyl-6-morpholino-2,3-dihydrobenzofuran-5-yl)-1H-pyrazolo[4,3-b]pyridine-3-carboxamide]
24 | 140 | CC1(C)Cc2cc(NC(=O)c3ccncn3)c(N3CCOCC3)cc2O1 [Example 46, N-(2,2-Dimethyl-6-morpholino-2,3-dihydrobenzofuran-5-yl)pyrimidine-4-carboxamide]
25 | 200 | CC1(C)Cc2cc(NC(=O)c3ncc(C(C)(C)C)[nH]3)c(N3CCOCC3)cc2O1 [Example 47, 5-(tert-Butyl)-N-(2,2-dimethyl-6-morpholino-2,3-dihydrobenzofuran-5-yl)-1H-imidazole-2-carboxamide]
26 | 220 | CC1(C)Cc2cc(NC(=O)c3ccco3)c(N3CCOCC3)cc2O1 [Example 48, N-(2,2-Dimethyl-6-morpholino-2,3-dihydrobenzofuran-5-yl)furan-2-carboxamide]
27 | 78 | Cn1nnc2c(C(=O)Nc3cc4c(cc3N3CCOCC3)OC(C)(C)C4)cncc21 [Example 50, N-(2,2-Dimethyl-6-morpholino-3H-benzofuran-5-yl)-3-methyl-triazolo[4,5-c]pyridine-7-carboxamide]
28 | 18 | Cc1nc(C(=O)Nc2cc3c(cc2N2CCOCC2)OC(C)(C)C3)co1 [Example 51, N-(2,2-Dimethyl-6-morpholino-3H-benzofuran-5-yl)-2-methyl-oxazole-4-carboxamide]
29 | 220 | CCn1nnc2c(C(=O)Nc3cc4c(cc3N3CCOCC3)OC(C)(C)C4)cncc21 [Example 53, N-(2,2-Dimethyl-6-morpholino-3H-benzofuran-5-yl)-3-ethyl-triazolo[4,5-c]pyridine-7-carboxamide]
30 | 4.6 | CC1(C)Cc2cc(NC(=O)c3ccn(-c4ccnc(C(C)(C)O)c4)n3)c(N3CCOCC3)cc2O1 [Example 61, N-(2,2-Dimethyl-6-morpholino-3H-benzofuran-5-yl)-1-[2-(1-hydroxy-1-methyl-ethyl)-4-pyridyl]pyrazole-3-carboxamide]
31 | 270 | Cc1cn2cccc(C(=O)Nc3cc4c(cc3N3CCOCC3)OC(C)(C)C4)c2n1 [Example 65, N-(2,2-Dimethyl-6-morpholino-3H-benzofuran-5-yl)-2-methyl-imidazo[1,2-a]pyridine-8-carboxamide]
